Biological target: T1, ACS-3 (Caenorhabditis elegans, UniProt O44560)
T1 sequence (O44560 1-653): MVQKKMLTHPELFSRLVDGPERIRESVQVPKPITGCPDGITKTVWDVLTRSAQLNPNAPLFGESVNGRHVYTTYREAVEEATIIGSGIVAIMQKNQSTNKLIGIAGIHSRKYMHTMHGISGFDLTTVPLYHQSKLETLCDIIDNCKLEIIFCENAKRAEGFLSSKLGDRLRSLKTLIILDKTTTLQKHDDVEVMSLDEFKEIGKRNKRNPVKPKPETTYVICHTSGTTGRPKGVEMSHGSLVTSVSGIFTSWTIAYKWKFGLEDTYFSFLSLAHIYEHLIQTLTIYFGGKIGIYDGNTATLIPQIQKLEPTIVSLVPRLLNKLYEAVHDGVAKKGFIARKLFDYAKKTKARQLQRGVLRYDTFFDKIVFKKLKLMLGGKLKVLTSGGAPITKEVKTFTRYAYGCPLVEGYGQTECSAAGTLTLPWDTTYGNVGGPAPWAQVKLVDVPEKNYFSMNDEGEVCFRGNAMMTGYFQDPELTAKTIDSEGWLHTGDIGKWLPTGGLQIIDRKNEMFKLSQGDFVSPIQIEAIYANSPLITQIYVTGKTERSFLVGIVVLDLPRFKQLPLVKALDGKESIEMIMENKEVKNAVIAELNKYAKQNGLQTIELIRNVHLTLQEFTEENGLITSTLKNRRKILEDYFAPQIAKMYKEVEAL
Test: acyl-CoA oxidase/catalase coupled colorimetric assay, […] nm
Assay type: biochemical
Details: with free long-chain fatty acid (18-carbon preferred)

In the case of `CC(C)(COP(=O)(O)OP(=O)(O)OC[C@H]1O[C@@H](n2cnc3c(N)ncnc32)[C@H](O)[C@@H]1OP(=O)(O)O)[C@@H](O)C(=O)NCCC(=O)NCCS` [CoA], the “acyl-CoA oxidase/catalase coupled colorimetric assay, 550 nm” value was “ACS activity generates acyl-CoA species from free fatty acid and CoA”.

Reference: publication PMC2992884 (Cell metabolism, 2010)
